ChEMBL document CHEMBL2021868, “Synthesis and evaluation of [¹⁸F]fluororasagiline, a novel positron emission tomography (PET) radioligand for monoamine oxidase B (MAO-B)” (Bioorg Med Chem, 2012)
Blank lines part the entries; values can stand above or below the compound they belong to.

Tests used:
[1] = species: Homo sapiens; assay: Selectivity ratio of IC50 for human recombinant MAO-A to IC50 for human recombinant MAO-B
[2] = target: T1, Amine oxidase [flavin-containing] B (Homo sapiens, UniProt P27338); assay: Inhibition of human recombinant MAO-B expressed in insect cells assessed as kynuramine hydrobromide oxidation after 20 mins by spectrophotometric analysis; type: cell-based
T1 sequence (P27338 whole entry): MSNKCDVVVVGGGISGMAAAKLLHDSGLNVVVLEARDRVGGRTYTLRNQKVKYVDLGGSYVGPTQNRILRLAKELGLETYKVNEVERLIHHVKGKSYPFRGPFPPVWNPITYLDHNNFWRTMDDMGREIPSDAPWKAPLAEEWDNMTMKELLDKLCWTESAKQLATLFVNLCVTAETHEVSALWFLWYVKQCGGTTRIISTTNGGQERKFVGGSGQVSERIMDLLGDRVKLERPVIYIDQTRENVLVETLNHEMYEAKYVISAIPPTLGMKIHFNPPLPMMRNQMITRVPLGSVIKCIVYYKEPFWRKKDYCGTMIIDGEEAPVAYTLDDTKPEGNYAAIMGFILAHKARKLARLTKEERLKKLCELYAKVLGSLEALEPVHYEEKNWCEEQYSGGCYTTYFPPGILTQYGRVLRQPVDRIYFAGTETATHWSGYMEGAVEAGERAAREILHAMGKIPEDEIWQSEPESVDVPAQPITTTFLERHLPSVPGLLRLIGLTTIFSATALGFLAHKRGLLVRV

[3] = tested on: Plasma; assay: Drug metabolism in cynomolgus monkey plasma assessed as [18F]b metabolite retention time at 163 Mbq, iv measured by HPLC analysis; type: ADME, organism-based, Macaca fascicularis; details: in vivo
[4] = target: T1, Amine oxidase [flavin-containing] B; assay: Binding affinity to MAO-B in human brain caudate nucleus region at 4 MBq/200 ml after 90 mins by autoradiography analysis; details: 1.5 h
[5] = tested on: Brain; assay: Drug uptake in cynomolgus monkey brain at 163 MBq, iv measured after wash out; type: ADME, organism-based, Macaca fascicularis; details: in vivo
[6] = tested on: Plasma; assay: Metabolic stability in cynomolgus monkey plasma assessed as radioactivity remaining at 163 Mbq, iv measured after 120 mins by HPLC analysis; type: ADME, organism-based, Macaca fascicularis; details: in vivo, 2 h
[7] = target: T1, Amine oxidase [flavin-containing] B; assay: Binding affinity to MAO-B in human brain external globus pallidus region at 4 MBq/200 ml after 90 mins by autoradiography analysis; type: tissue-based; details: 1.5 h
[8] = tested on: Plasma; assay: Drug metabolism in cynomolgus monkey plasma assessed as [18F]fluoroaminoindan metabolite retention time at 163 Mbq, iv measured by HPLC analysis; type: ADME, organism-based, Macaca fascicularis; details: in vivo
[9] = Drug uptake in cynomolgus monkey striatum at 163 MBq, iv measured up to 120 mins; type: ADME, organism-based, Macaca fascicularis; details: in vivo, 2 h
[10] = Drug uptake in cynomolgus monkey cerebellum at 163 MBq, iv measured up to 120 mins; type: ADME, organism-based, Macaca fascicularis; details: in vivo, 2 h
[11] = tested on: Plasma; assay: Drug metabolism in cynomolgus monkey plasma assessed as [18F]a metabolite retention time at 163 Mbq, iv measured by HPLC analysis; type: ADME, organism-based, Macaca fascicularis; details: in vivo
[12] = target: T1, Amine oxidase [flavin-containing] B; assay: Binding affinity to MAO-B in human brain hippocampus region at 4 MBq/200 ml after 90 mins by autoradiography analysis; type: tissue-based; details: 1.5 h
[13] = target: T1, Amine oxidase [flavin-containing] B; assay: Binding affinity to MAO-B in human brain putamen region at 4 MBq/200 ml after 90 mins by autoradiography analysis; details: 1.5 h
[14] = target: T1, Amine oxidase [flavin-containing] B; assay: Binding affinity to MAO-B in human brain at 4 MBq/200 ml after 90 mins by autoradiography analysis in presence of 10 uM rasagiline; details: 1.5 h
[15] = tested on: Plasma; assay: Drug metabolism in cynomolgus monkey plasma assessed as formation of [18F]fluoroaminoindan metabolite at 163 Mbq, iv by HPLC analysis in presence of non-radioactive compound; type: ADME, organism-based, Macaca fascicularis; details: in vivo
[16] = target: T1, Amine oxidase [flavin-containing] B; assay: Binding affinity to MAO-B in human brain at 4 MBq/200 ml after 90 mins by autoradiography analysis in presence of 10 uM pirlindole; details: 1.5 h
[17] = Chemical stability of the compound in PBS assessed as compound remaining at pH 7.4 after 180 mins; type: physicochemical; details: read-out: Stability
[18] = target: T2, Amine oxidase [flavin-containing] A (Homo sapiens, UniProt P21397); assay: Inhibition of human recombinant MAO-A expressed in insect cells assessed as kynuramine hydrobromide oxidation after 20 mins by spectrophotometric analysis
T2 sequence (P21397 whole entry): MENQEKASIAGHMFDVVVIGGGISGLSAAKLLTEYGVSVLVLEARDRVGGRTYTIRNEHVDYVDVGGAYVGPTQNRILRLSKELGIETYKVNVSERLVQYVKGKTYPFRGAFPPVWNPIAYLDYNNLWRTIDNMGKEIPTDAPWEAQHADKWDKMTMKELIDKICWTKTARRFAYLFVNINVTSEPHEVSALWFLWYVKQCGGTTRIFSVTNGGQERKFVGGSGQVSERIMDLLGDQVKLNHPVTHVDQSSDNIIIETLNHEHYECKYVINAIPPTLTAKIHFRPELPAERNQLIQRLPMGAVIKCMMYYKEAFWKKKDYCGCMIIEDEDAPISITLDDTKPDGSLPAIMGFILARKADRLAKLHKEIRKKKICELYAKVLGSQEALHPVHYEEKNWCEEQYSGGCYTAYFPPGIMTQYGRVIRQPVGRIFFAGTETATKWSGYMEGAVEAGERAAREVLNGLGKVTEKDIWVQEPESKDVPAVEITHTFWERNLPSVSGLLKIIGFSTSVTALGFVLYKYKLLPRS

[19] = Drug uptake in cynomolgus monkey cortex at 163 MBq, iv measured up to 120 mins; type: ADME, organism-based, Macaca fascicularis; details: in vivo, 2 h
[20] = tested on: Brain; assay: Drug uptake in cynomolgus monkey brain at 163 MBq, iv after 4 mins; type: ADME, organism-based, Macaca fascicularis; details: in vivo
[21] = tested on: Plasma; assay: Metabolic stability in cynomolgus monkey plasma assessed as radioactivity remaining at 163 Mbq, iv measured after 45 mins by HPLC analysis; type: ADME, organism-based, Macaca fascicularis; details: in vivo, 0.75 h
[22] = tested on: Thalamus; assay: Drug uptake in cynomolgus monkey thalamus at 163 MBq, iv measured up to 120 mins; type: ADME, organism-based, Macaca fascicularis; details: in vivo, 2 h
[23] = target: T1, Amine oxidase [flavin-containing] B; assay: Binding affinity to MAO-B in human brain thalamus region at 4 MBq/200 ml after 90 mins by autoradiography analysis; type: tissue-based; details: 1.5 h
[24] = target: T1, Amine oxidase [flavin-containing] B; assay: Binding affinity to MAO-B in human brain at 4 MBq/200 ml after 90 mins by autoradiography analysis in presence of 10 uM L-deprenyl; details: 1.5 h

- Ratio IC50 [1]: 84
SMILES: C#CCN[C@H]1c2ccccc2C[C@@H]1F

- IC50 [2]: 27 nM
- Time [3]: 9.2 min
- Activity [4]: Active
- Drug uptake [5]: Active
- Stability [6]: 20%
- Activity [7]: Active
- Time [8]: 4.6 min
- Drug uptake [9]: Active
- Drug uptake [10]: Not Active
- Time [11]: 2.7 min
- Activity [12]: Active
- Activity [13]: Active
- Activity [14]: Not Active
- Drug metabolism [15]: Active
- Activity [16]: Active
- remaining at 3 h [17]: > 97%
- IC50 [18]: 2300 nM
- Drug uptake [19]: Not Active
- SUV [20]: 250%
- Stability [21]: 50%
- Drug uptake [22]: Active
- Activity [23]: Active
- Activity [24]: Not Active
SMILES: C#CCN[C@H]1c2ccccc2C[C@@H]1[18F] [[18F]FLUORORASAGILINE]
